Holding throughout (assay type): binding
One experiment has as its system Synagis (anti-RSV). Put plainly: ELISA: biotinylated LTA or PGP added to Synagis-coated plates. Particulars: Synagis-coated wells. As to the method:
(§1) ELISA plates (96-well) were coated overnight with […] of Pagibaximab (anti-LTA), Zantibody (anti-peptidoglycan), or Synagis (anti-RSV), all of which are chimeric IgG1 antibodies. PGP was prepared as described above in Example 1, and LTA was extracted from S. aureus. The plates were then developed with horseradish peroxidase for 30 minutes.
Background: ELISA stands for enzyme-linked immunosorbent assay.

For a further experiment, the system named is Pagibaximab (anti-LTA). Put plainly: ELISA: biotinylated LTA or PGP added to Pagibaximab-coated plates. Particulars: for O.D. readings: Pagibaximab-coated wells. The procedure: as §1
Experiment [1] has as its system Zantibody (anti-peptidoglycan). The experiment in a line: ELISA: biotinylated LTA or PGP added to Zantibody-coated plates. The following applies: anti-peptidoglycan-coated wells. As to the method: as §1
[2] abbreviates: biotinylated LTA or PGP at 0.004 μg/ml.
The mark [3] stands for this setting: biotinylated LTA or PGP at 0.012 μg/ml.
[4] abbreviates: biotinylated LTA or PGP at 0.037 μg/ml.
[5] abbreviates: biotinylated LTA or PGP at 0.1 μg/ml.
Where [6] appears, read: biotinylated LTA or PGP at 0.33 μg/ml.
The mark [7] stands for this setting: biotinylated LTA or PGP at 1 μg/ml.
The mark [8] stands for this setting: biotinylated LTA or PGP at 3 μg/ml.

Entries after “also recorded” stand apart in the source; their conditions may differ.

For poly-glycerolphosphate [PGP], the O.D. readings in the experiment with Synagis (anti-RSV) (setting [2]), in the experiment with Synagis (anti-RSV) (setting [3]), in the experiment with Synagis (anti-RSV) (setting [4]), with Synagis (anti-RSV) (setting [5]), in the experiment on Synagis (anti-RSV) (setting [6]) and in the experiment on Synagis (anti-RSV) (setting [7]) was <0.02 throughout. In addition, the O.D. readings is <0.02 in the experiment on Synagis (anti-RSV) (setting [8]); 0.34 in the experiment on Pagibaximab (anti-LTA) (setting [2]); 0.51 in the experiment on Pagibaximab (anti-LTA) (setting [3]); 0.67 with Pagibaximab (anti-LTA) (setting [4]); 0.89 in the experiment with Pagibaximab (anti-LTA) (setting [5]); 1.09 with Pagibaximab (anti-LTA) (setting [6]). Besides, the O.D. readings is 1.42 with Pagibaximab (anti-LTA) (setting [7]); 1.91 with Pagibaximab (anti-LTA) (biotinylated LTA or PGP at 3 μg/ml, one hour); <0.02 in experiment [1] (setting [2]); <0.02 in experiment [1] (setting [3]); <0.02 in experiment [1] (setting [4]); <0.02 in experiment [1] (setting [5]). The figures for the O.D. readings in experiment [1] (setting [6]), in experiment [1] (setting [7]) and in experiment [1] (setting [8]) were <0.02, <0.02 and 0.03, respectively. Further, the “recognition / binding by Pagibaximab (in words)” value in the experiment with Pagibaximab (anti-LTA) (compared with LTA from S. aureus) was “recognized; also recorded: binds equally well”.

Values taken from US20130052204A1, “(POLY)-GLYCEROLPHOSPHATE-BASED ANTI-GRAM POSITIVE BACTERIAL VACCINE” (priority 2009, published 2013).
